Test results: ChEMBL document CHEMBL3885861, “Open TG-GATES”

Species on record: Rattus norvegicus
Assay: Open TG-GATES - Regimen: Single
Type: toxicity, organism-based, Sprague-Dawley
Set-up: regimen Single, gender Male, age 6 weeks
Details: in vivo, po, 0 mg/kg, route gavage, dose level Control; for APTT / Bas / Eos / Fbg / Hb / Ht / Lym / MCH / MCHC / MCV / Mono / Neu / PT / Plat / RBC / Ret / WBC: tissue Blood; for KIDNEY_L / KIDNEY_R / KIDNEY_TOTAL: tissue Kidney; for LIVER: tissue Liver; for ALP / ALT / AST / BUN / CRE / Ca / Cl / DBIL / GLC / IP / K / LDH / Na / PL / RALB / TBIL / TC / TG / TP / gamma-GTP: tissue Plasma

COc1cc([C@@H]2c3cc4c(cc3[C@@H](O[C@@H]3O[C@@H]5CO[C@@H](C)O[C@H]5[C@H](O)[C@H]3O)[C@H]3COC(=O)[C@H]23)OCO4)cc(OC)c1O [ETOPOSIDE]
TERMINAL_BW (3 h): 199.4 g | APTT (3 h): 17.1 s | Bas (3 h): 0% | Eos (3 h): 1.2% | Fbg (3 h): 192.2 mg/dL | Hb (3 h): 13.3 g/dL | Ht (3 h): 39.3% | Lym (3 h): 74.8% | MCH (3 h): 22.4 pg | MCHC (3 h): 33.8% | MCV (3 h): 66.2 fL | Mono (3 h): 8% | Neu (3 h): 15.8% | PT (3 h): 12.2 s | Plat (3 h): 113.5 x10_4/uL | RBC (3 h): 594.2 x10_4/ul | Ret (3 h): 10.6% | WBC (3 h): 85 x10_2/uL | KIDNEY_L (3 h): 1 g | KIDNEY_R (3 h): 1 g | KIDNEY_TOTAL (3 h): 2 g | LIVER (3 h): 9.5 g | ALP (3 h): 857.8 IU/L | ALT (3 h): 32.8 IU/L | AST (3 h): 67.6 IU/L | BUN (3 h): 11.8 mg/dL | CRE (3 h): 0.5 mg/dL | Ca (3 h): 10.4 mg/dL | Cl (3 h): 105 meq/L | DBIL (3 h): 0.034 mg/dL | GLC (3 h): 197.6 mg/dL | IP (3 h): 9.1 mg/dL | K (3 h): 4.7 meq/L | LDH (3 h): 97.4 IU/L | Na (3 h): 141.6 meq/L | PL (3 h): 126.6 mg/dL | RALB (3 h): 3.4 g/dL | TBIL (3 h): 0.3 mg/dL | TC (3 h): 71.8 mg/dL | TG (3 h): 43 mg/dL | TP (3 h): 5.2 g/dL | gamma-GTP (3 h): 1 IU/L | TERMINAL_BW (6 h): 198 g | APTT (6 h): 16.6 s | Bas (6 h): 0% | Eos (6 h): 0.8% | Fbg (6 h): 201.6 mg/dL | Hb (6 h): 13.4 g/dL | Ht (6 h): 39.7% | Lym (6 h): 82.4% | MCH (6 h): 22 pg | MCHC (6 h): 33.7% | MCV (6 h): 65.3 fL | Mono (6 h): 5.6% | Neu (6 h): 11.2% | PT (6 h): 11.9 s | Plat (6 h): 117.8 x10_4/uL | RBC (6 h): 607.8 x10_4/ul | Ret (6 h): 9.8% | WBC (6 h): 93.7 x10_2/uL | KIDNEY_L (6 h): 0.9 g | KIDNEY_R (6 h): 0.9 g | KIDNEY_TOTAL (6 h): 1.8 g | LIVER (6 h): 9.1 g | ALP (6 h): 946.6 IU/L | ALT (6 h): 36 IU/L | AST (6 h): 65.2 IU/L | BUN (6 h): 11.6 mg/dL | CRE (6 h): 0.6 mg/dL | Ca (6 h): 10.6 mg/dL | Cl (6 h): 105 meq/L | DBIL (6 h): 0.016 mg/dL | IP (6 h): 10.5 mg/dL | K (6 h): 4.8 meq/L | LDH (6 h): 65.8 IU/L | Na (6 h): 142.4 meq/L | PL (6 h): 132.8 mg/dL | RALB (6 h): 3.3 g/dL | TBIL (6 h): 0.4 mg/dL | TC (6 h): 72.8 mg/dL | TG (6 h): 68.4 mg/dL | TP (6 h): 5.2 g/dL | gamma-GTP (6 h): 1 IU/L | TERMINAL_BW (9 h): 194.1 g | APTT (9 h): 16.9 s | Bas (9 h): 0% | Eos (9 h): 1.2% | Fbg (9 h): 206 mg/dL | Hb (9 h): 13.4 g/dL | Ht (9 h): 39.7% | Lym (9 h): 74.4% | MCH (9 h): 22.2 pg | MCHC (9 h): 33.9% | MCV (9 h): 65.6 fL | Mono (9 h): 9.8% | Neu (9 h): 15% | PT (9 h): 10.9 s | Plat (9 h): 117.1 x10_4/uL | RBC (9 h): 604.6 x10_4/ul | Ret (9 h): 9.1% | WBC (9 h): 71.2 x10_2/uL | KIDNEY_L (9 h): 0.9 g | KIDNEY_R (9 h): 0.9 g | KIDNEY_TOTAL (9 h): 1.9 g | LIVER (9 h): 8.4 g | ALP (9 h): 752.2 IU/L | ALT (9 h): 29.8 IU/L | AST (9 h): 58.2 IU/L | BUN (9 h): 10.4 mg/dL | CRE (9 h): 0.5 mg/dL | Ca (9 h): 10.6 mg/dL | Cl (9 h): 107.6 meq/L | DBIL (9 h): 0.022 mg/dL | GLC (9 h): 190.6 mg/dL | IP (9 h): 10.1 mg/dL | K (9 h): 4.6 meq/L | LDH (9 h): 59.2 IU/L | Na (9 h): 144.6 meq/L | PL (9 h): 127.4 mg/dL | RALB (9 h): 3.4 g/dL | TBIL (9 h): 0.4 mg/dL | TC (9 h): 71.6 mg/dL | TG (9 h): 28.4 mg/dL | TP (9 h): 5.4 g/dL | gamma-GTP (9 h): 0.8 IU/L | TERMINAL_BW (24 h): 215.6 g | APTT (24 h): 16.3 s | Bas (24 h): 0% | Eos (24 h): 1.2% | Fbg (24 h): 207.6 mg/dL | Hb (24 h): 13.1 g/dL | Ht (24 h): 38.4% | Lym (24 h): 78.2% | MCH (24 h): 22.7 pg | MCHC (24 h): 34.1% | MCV (24 h): 66.6 fL | Mono (24 h): 6% | Neu (24 h): 14.6% | PT (24 h): 11.6 s | Plat (24 h): 107.4 x10_4/uL | RBC (24 h): 578 x10_4/ul | Ret (24 h): 8.8% | WBC (24 h): 94.9 x10_2/uL | KIDNEY_L (24 h): 1 g | KIDNEY_R (24 h): 1 g | KIDNEY_TOTAL (24 h): 2 g | LIVER (24 h): 10.9 g | ALP (24 h): 866 IU/L | ALT (24 h): 38.2 IU/L | AST (24 h): 68.2 IU/L | CRE (24 h): 0.6 mg/dL | Ca (24 h): 10.9 mg/dL | Cl (24 h): 104.6 meq/L | DBIL (24 h): 0.03 mg/dL | GLC (24 h): 196.6 mg/dL | IP (24 h): 7.7 mg/dL | K (24 h): 4.8 meq/L | LDH (24 h): 85.2 IU/L | Na (24 h): 141.4 meq/L | PL (24 h): 161.6 mg/dL | RALB (24 h): 3.6 g/dL | TBIL (24 h): 0.3 mg/dL | TC (24 h): 92.2 mg/dL | TG (24 h): 84.4 mg/dL | TP (24 h): 5.6 g/dL | gamma-GTP (24 h): 1.6 IU/L
